Entries after “also recorded” stand apart in the source; their conditions may differ.
Tests used:
[1] = system: mouse hippocampal neuron cell line (HT-22); test: FACS of MuLV-GFP infected HT-22 cells; type: cell-based; details: THP 250 nM
Experimental: Having determined that THP increases the expression of the cell proliferating markers, a determination was sought as to whether the increase in cell proliferation markers translated into an increase in neuronal number. […] As shown in FIGS. 6A-6C, THP increases neuron number as assessed in MuLV-GFP infected mouse neurons. The effect of THP on HT-22 cells proliferation was detected on MuLV infected cells.
FIG. 6C summarizes the FACS results. V=vehicle; THP (250 nM).

[2] = system: neural stem cells derived from human fetal cortex; test: BrdU chemiluminescence ELISA in human neural stem cells; type: cell-based; details: 250 and 500 nM, 24 hours
Experimental: Another experiment was performed to assess the neurogenic effects of THP administration on human neural stem cells. In this experiment, neural stem cells derived from human fetal cortex were treated with varying concentrations of THP [1-1000 nM] or with bFGF [20 ng/ml]+heparin [[…]] as a THP positive control. The proliferation marker, BrdU [10 uM] was added simultaneously with test molecules and the cells were incubated at 37° C. for 24 hours.

[3] = system: human neural progenitor cells (hNPC); test: Proliferation and phenotype of human neural progenitor cells (hNPC); type: cell-based
Experimental: To determine the impact of THP on hNPC cell proliferation, a dose response (pM-nM) experiment was performed. Results of these analyses indicate:
To determine the impact of THP on the stability of hNPC phenotype, hNPCs were double labeled with BrdU, Tuj1 and MAP2, or GFAP.
To determine whether the same mechanisms of THP-induced proliferation in rodent derived NPCs could be generalized to humans, we determined the requirement of the GABAAR by antagonizing the GABAAR with bicuculline followed by assessment of THP-induced hNPC cell proliferation.

[4] = system: mouse dentate gyrus subgranular zone (SGZ); test: Unbiased stereology of BrdU-positive cells in dentate gyrus subgranular zone; type: in vivo; details: for cell proliferation (normal BrdU+ cells) / pyknotic BrdU+ cell count after THP treatment: 24 hr; for pyknotic BrdU+ cell count after THP treatment: 6-months, 10 mg/kg s.c.
Experimental: Mice of each genotype and age received a subcutaneous (s.c.) injection of THP at a concentration of 10 mg/kg body weight (BW), an optimal dose of THP-[…] based on our previous studies. One hour after THP injection, mice were intraperitoneally (i.p.) injected with 100 mg/kg BW bromodeoxyuridine (BrdU). Two experimental paradigms were used: 1) THP treatment for behavior and cell survival assessment, in which animals received a single shot of THP/vehicle, followed by a 7-day neurogenesis and migration phase, followed by a 5-day trace-conditioning test followed 9 days later by a 1-day memory test, and scarified 21 days after a single THP injection at which time FACS analysis of BrdU positive cells was performed to assess cell survival; 2).
Acute THP treatment for cell proliferation assessment, in which animals received a single injection of THP/vehicle and were sacrificed 24 hr later followed by quantitative unbiased stereology of BrdU positive cells.
Mice were sacrificed 24 h after THP administration for cell proliferation assessment or at the end of memory test for cell survival assessment. On the day of sacrifice mice were deeply anesthetized with a combination of ketamine (100 mg/kg) and xylazine (10 mg/kg), and perfused with PBS. Brains were dissected into two hemispheres, and one hemisphere was fixed immediately in cold 4% paraformaldehyde and was used for either stereological analysis (cell proliferation) or FACS analysis (cell survival).
The fixed hemispheres from cell proliferation assessment experiment were sectioned into a series of 40 μm coronal sections and every sixth section in the series was processed for BrdU histolabeling by NeuroScience Associates (Knoxville, Tenn.). Prior to labeling, all slides were coded and the codes were not broken until analyses were completed. The number of BrdU labeled cells was determined by unbiased stereology (optical dissector). Systematic samplings of unbiased counting frames of 50 μm on a side with a 200 μm matrix spacing were produced using a semiautomatic stereology system (Zeiss Axiovert 200M fluorescent microscope as part of the 3iMarianas digital microscopy and a 60×SPlan apochromat oil objective (1.4 numerical aperture). Positive cells that intersected the uppermost focal (exclusion) plane and those that intersected the exclusion boundaries of the unbiased sampling frame were excluded from analysis. Cells that met analysis criteria through a 20 μm axial distance were counted according to the optical dissector principle. The granule cell layer reference volume was determined by summing the traced SGZ, granule cell areas for each section multiplied by the distance between sections sampled. The mean granule cell number per dissector volume was multiplied by the reference volume to estimate the total granule cell number. The stereologically determined number of BrdU-positive cells was related to the granule cell layer sectional volume and multiplied by the reference volume to estimate the total number of BrdU-positive cells.
Total BrdU labeled cells were quantified for 3, 6, 9, and 12 months non-Tg and 3×TgAD male mice. The serial brain sections were collected to analyze the effects of THP on BrdU incorporation by unbiased stereological analysis. Data are represented as mean±SEM (n≥4 in each group). […] PCNA, an S-phase cell cycle marker, was increased in THP compared to vehicle control in 3×TgAD mice in three month (FIG. 12B) and six month (FIG. 12C) mice as shown by immunoblot.
To decipher the THP effect in neurogenesis, cell proliferation assessment experiments were conducted. Following animal sacrifice and brain section staining, unbiased stereology was conducted in both non-Tg and 3×TgAD mice at three different ages.

[5] = system: SVZ from 3×TgAD mice; test: Unbiased stereology of BrdU-positive cells in subventricular zone; type: in vivo, mouse; details: 10 mg/kg

CC(=O)[C@H]1CC[C@H]2[C@@H]3CC[C@H]4C[C@H](O)CC[C@]4(C)[C@H]3CC[C@]12C [THP, 3α-hydroxy-5α-pregnan-20-one]
increase in dividing cell number [1]: 22%
BrdU chemiluminescence compared with positive control bFGF+heparin [2]: consistently greater than the positive control bFGF+heparin
BrdU chemiluminescence relative to vehicle control [2]: significantly increased
efficacy as neurogenic factor compared with bFGF+heparin [3]: exceeded that of bFGF+heparin
proliferative efficacy compared with positive control bFGF ([3]; 250 nM THP): as efficacious a proliferative factor as the positive control, bFGF
concentration at which proliferation was first evident ([3]; dose response): 1 nM
concentration at which proliferative efficacy diminished ([3]; dose response): 1000 nM
concentration of maximal proliferation ([3]; dose response, sustained at 250 and 500 nM): 100 nM
increase in human neural progenitor cell proliferation ([3]; doses within an achievable therapeutic range): 50%
number of BrdU positive hNPCs vs vehicle ([3]; double labeling): significantly increased
proportion of Tuj1, MAP2 or GFAP cells vs vehicle ([3]; double labeling): not changing
time at which hNPC proliferation reached maximum ([3]; time course): 6 h
time at which hNPC proliferation was evident ([3]; time course): 3 h
increase in BrdU incorporation vs vehicle control group ([4]; 3×TgAD mice, 3 months, 10 mg/kg BW s.c., 24 hours): 55+18%
cell proliferation (normal BrdU+ cells) ([4]; 3×TgAD mice, 6, 9, 12 months): no significant effect in cell proliferation
pyknotic BrdU+ cell count after THP treatment ([4]; 3×TgAD mice): 48.0±48.00
neurogenic deficit of 3×TgAD mice vs non-Tg (total BrdU cells) ([4]; 3×TgAD mice, one s.c. dose, 24 hours): restored proliferation to that of normal nontransgenic mice; also recorded: reversed the neurogenic deficit of the 3×TgAD mouse SGZ and restored normal levels of neurogenesis
pyknotic cell population, vehicle vs THP ([4]; non-Tg and 3×TgAD mice, 9- and 12-months): no difference
cell proliferation (normal BrdU+ cells) ([4]; non-Tg mice, 6, 9, 12 months): no effect on cell proliferation
pyknotic BrdU+ cell count after THP treatment ([4]; non-Tg mice): 576.0±185.49
increase in BrdU-positive cells relative to untreated group [5]: 58%

From US11207331B2, “Agents, compositions and methods for enhancing neurological function” (University of Southern California, priority 2007, dated 2021)
